The record followed here is patent publication US10174029B2, “Pyrimidine-2,4-diamine derivatives for treatment of cancer” (THOMAS HELLEDAYS STIFTELSE FOR MEDICINSK FORSKNING, priority 2012, dated 2019).

The first assay deals with MTH1 (Homo sapiens, UniProt P36639). Description: MTH1 enzymatic assay and IC50 value determination (malachite green). As to conditions: MTH1 4.8 nM, dGTP 100 μM, 15 minutes at 22° C.; group: between 2 μM and 10 μM. Format: biochemical. Put shortly: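 Malachite green detection of Pi after coupling dGTP hydrolysis to excess E. coli pyrophosphatase; 4.8 nM MTH1, 100 μM dGTP in Tris-acetate buffer with Mg2+ and DTT, 1% DMSO, 15 min at 22 °C. 12-point 1:3 compound series; absorbance at 630 nm; IC50 by four-parameter nonlinear regression.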
Turning to `C[C@@H]1[C@H]2C[C@@H](C[C@H]1Nc1cc(-c3cccc(Cl)c3Cl)nc(N)n1)C2(C)C` [Example 299, 6-(2,3-dichlorophenyl)-4-N-[(1R,2R,3R,5S)-2,6,6-trimethylbicyclo[3.1.1]heptan-3-yl]pyrimidine-2,4-diamine], the IC50 – broadly, the concentration at which inhibition is half-maximal – is 2000 to 10000 nM.

In turn, `COc1ccc(C(CNc2cc(-c3cccc(C)c3C)nc(N)n2)N2CCCC2)cc1` (stereo not drawn) [Example 345, 6-(2,3-Dimethylphenyl)-4-N-[2-(4-methoxyphenyl)-2-(pyrrolidin-1-yl)ethyl]pyrimidine-2,4-diamine] came in with an IC50 of 2000 to 10000 nM.

Staying with this assay, now noted: MTH1 4.8 nM, dGTP 100 μM, 15 minutes at 22° C.; group: less than 200 nM.
`Nc1nc(NCCc2ccc(S(N)(=O)=O)cc2)cc(-c2cccc(Cl)c2Cl)n1` [Example 296, 4-(2-{[2-amino-6-(2,3-dichlorophenyl)pyrimidin-4-yl]amino}ethyl)benzene-1-sulfonamide] had an IC50 of under 200 nM.

Take `CC1CCN(Cc2cccc(CNc3cc(-c4cccc(Cl)c4Cl)nc(N)n3)c2)CC1` [Example 300, 6-(2,3-Dichlorophenyl)-4-N-({3-[(4-methylpiperidin-1-yl)methyl]phenyl}methyl)-pyrimidine-2,4-diamine]: the IC50 is under 200 nM.

`Nc1nc(NCCc2ccc(O)cc2)cc(-c2cccc(Cl)c2Cl)n1` [Example 301, 4-(2-{[2-Amino-6-(2,3-dichlorophenyl)pyrimidin-4-yl]amino}ethyl)phenol] came in with an IC50 of under 200 nM.

`Nc1nc(NC23CC4CC(CC2C4)C3)cc(-c2cccc(Cl)c2Cl)n1` [Example 304, 6-(2,3-Dichlorophenyl)-4-N-{tricyclo[3.3.1.0^3,7]nonan-3-yl}pyrimidine-2,4-diamine] had a 50% inhibitory concentration (IC50) of under 200 nM.

For `CNc1cc(-c2cccc(NC(=O)c3ncccc3O)c2)nc(N)n1` [Example 308, N-{3-[2-amino-6-(methylamino)pyrimidin-4-yl]phenyl}-3-hydroxypyridine-2-carboxamide], the 50% inhibitory concentration (IC50) is under 200 nM.

For `CNc1cc(-c2cccc(NC(=O)/C=C/CN(C)C)c2)nc(N)n1` [Example 312, (2E)-N-{3-[2-Amino-6-(methylamino)pyrimidin-4-yl]phenyl}-4-(dimethylamino)but-2-enamide], the IC50 is under 200 nM.

`C=CS(=O)(=O)Nc1cccc(-c2cc(NC)nc(N)n2)c1` [Example 313, N-{3-[2-amino-6-(methylamino)pyrimidin-4-yl]phenyl}ethene-1-sulfonamide] returned an IC50 of under 200 nM.

As to `CNc1cc(-c2cccc(NC(=O)C(C)=O)c2)nc(N)n1` [Example 315, N-{3-[2-Amino-6-(methylamino)pyrimidin-4-yl]phenyl}-2-oxopropanamide], the IC50 is under 200 nM.

`CNc1cc(-c2cccc(NC(=O)C(=O)c3ccccc3)c2)nc(N)n1` [Example 316, N-{3-[2-Amino-6-(methylamino)pyrimidin-4-yl]phenyl}-2-oxo-2-phenylacetamide]: the IC50 is under 200 nM.

In turn, `C=CC(=O)Nc1ccc(-c2cc(NC)nc(N)n2)cc1` [Example 317, N-{4-[2-Amino-6-(methylamino)pyrimidin-4-yl]phenyl}prop-2-enamide] came in with an IC50 of under 200 nM.

In turn, `CNc1cc(-c2cccc(NC(=O)CO)c2)nc(N)n1` [Example 322, N-{3-[2-Amino-6-(methylamino)pyrimidin-4-yl]phenyl}-2-hydroxyacetamide] returned an IC50 of under 200 nM.

`CNc1cc(-c2cccc(NC(=O)C(O)c3ccc(Cl)cc3)c2)nc(N)n1` (stereo not drawn) [Example 323, N-{3-[2-Amino-6-(methylamino)pyrimidin-4-yl]phenyl}-2-(4-chlorophenyl)-2-hydroxyacetamide] yielded an IC50 of under 200 nM.

The molecule `CNc1cc(-c2cccc(NC(=O)C(O)c3ccccc3)c2)nc(N)n1` (stereo not drawn) [Example 324, N-{3-[2-Amino-6-(methylamino)pyrimidin-4-yl]phenyl}-2-hydroxy-2-phenylacetamide] showed an IC50 of under 200 nM.

In the case of `CNc1cc(-c2cccc(NC(=O)c3ccccc3O)c2)nc(N)n1` [Example 326, N-{3-[2-Amino-6-(methylamino)pyrimidin-4-yl]phenyl}-2-hydroxybenzamide], the IC50 was under 200 nM.

Consider `CNc1cc(-c2ccc(C(=O)C(F)(F)F)cc2)nc(N)n1` [Example 327, 1-{4-[2-Amino-6-(methylamino)pyrimidin-4-yl]phenyl}-2,2,2-trifluoroethan-1-one], for which the IC50 is under 200 nM.

The molecule `CNc1cc(-c2ccc(CN)cc2)nc(N)n1` [Example 329, 6-[4-(Aminomethyl)phenyl]-4-N-methylpyrimidine-2,4-diamine] had an IC50 of under 200 nM.

As for `Cc1cccc(-c2cc(NCCc3ccc(S(N)(=O)=O)cc3)nc(N)n2)c1C` [Example 330, 4-(2-{[2-Amino-6-(2,3-dimethylphenyl)pyrimidin-4-yl]amino}ethyl)benzene-1-sulfonamide], the IC50 is under 200 nM.

`Cc1cccc(-c2cc(NCCc3ccc(S(C)(=O)=O)cc3)nc(N)n2)c1C` [Example 331, 6-(2,3-Dimethylphenyl)-4-N-[2-(4-methanesulfonylphenyl)ethyl]pyrimidine-2,4-diamine] showed an IC50 of under 200 nM.

As for `Cc1cccc(-c2cc(NCCc3ccc(C#N)cc3)nc(N)n2)c1C` [Example 333, 4-(2-{[2-Amino-6-(2,3-dimethylphenyl)pyrimidin-4-yl]amino}ethyl)benzonitrile], the IC50 is under 200 nM.

In turn, `Cc1cccc(-c2cc(NCCc3ccncc3)nc(N)n2)c1C` [Example 334, 6-(2,3-Dimethylphenyl)-4-N-[2-(pyridin-4-yl)ethyl]pyrimidine-2,4-diamine] had an IC50 of under 200 nM.

`Cc1cccc(-c2cc(NCCOc3ccc(C#N)cc3)nc(N)n2)c1C` [Example 335, 4-(2-{[2-Amino-6-(2,3-dimethylphenyl)pyrimidin-4-yl]amino}ethoxy)benzonitrile] registered an IC50 of under 200 nM.

For `Cc1cccc(-c2cc(NCc3ccc(S(N)(=O)=O)cc3)nc(N)n2)c1C` [Example 336, 4-({[2-Amino-6-(2,3-dimethylphenyl)pyrimidin-4-yl]amino}methyl)benzene-1-sulfonamide], the concentration for half-maximal inhibition (IC50) is under 200 nM.

As to `Cc1cccc(-c2cc(NCC(C)c3ccc(Cl)cc3)nc(N)n2)c1C` (stereo not drawn) [Example 343, 4-N-[2-(4-Chlorophenyl)propyl]-6-(2,3-dimethylphenyl)pyrimidine-2,4-diamine], the IC50 was under 200 nM.

With `Cc1cccc(-c2cc(NCc3ccc(N(C)C)cc3)nc(N)n2)c1C` [Example 346, 4-N-{[4-(Dimethylamino)phenyl]methyl}-6-(2,3-dimethylphenyl)pyrimidine-2,4-diamine], the IC50 is under 200 nM.

`Cc1cccc(-c2cc(NCc3cnn(-c4ccc(F)cc4)c3)nc(N)n2)c1C` [Example 348, 6-(2,3-Dimethylphenyl)-4-N-{[1-(4-fluorophenyl)-1H-pyrazol-4-yl]methyl}pyrimidine-2,4-diamine]: the IC50 is under 200 nM.

`Cc1cccc(-c2cc(NCCc3n[nH]c(-c4ccncc4)n3)nc(N)n2)c1C` [Example 349, 6-(2,3-dimethylphenyl)-4-N-{2-[5-(pyridin-4-yl)-1H-1,2,4-triazol-3-yl]ethyl}pyrimidine-2,4-diamine] registered an IC50 of under 200 nM.

`Cc1cccc(-c2cc(NCC3CCCN(c4ncccn4)C3)nc(N)n2)c1C` (stereo not drawn) [Example 350, 6-(2,3-Dimethylphenyl)-4-N-{[1-(pyrimidin-2-yl)piperidin-3-yl]methyl}pyrimidine-2,4-diamine] came in with an IC50 of under 200 nM.

As to `COc1ccc2nc(CCNc3cc(-c4cccc(C)c4C)nc(N)n3)[nH]c2c1` [Example 351, 6-(2,3-Dimethylphenyl)-4-N-[2-(6-methoxy-1H-1,3-benzodiazol-2-yl)ethyl]pyrimidine-2,4-diamine], the IC50 was under 200 nM.

For the molecule `Cc1cccc(-c2cc(NCCCNS(=O)(=O)c3c(C)noc3C)nc(N)n2)c1C` [Example 359, N-(3-{[2-Amino-6-(2,3-dimethylphenyl)pyrimidin-4-yl]amino}propyl)-3,5-dimethyl-1,2-oxazole-4-sulfonamide], the IC50 was under 200 nM.

In turn, `Cc1cccc(-c2cc(NCCCNC(=O)Nc3cc(Cl)nc(Cl)c3)nc(N)n2)c1C` [Example 361, 3-(3-{[2-Amino-6-(2,3-dimethylphenyl)pyrimidin-4-yl]amino}propyl)-1-(2,6-dichloropyridin-4-yl)urea] returned an IC50 of under 200 nM.

`CC(=O)Nc1cccc(OCCCNc2cc(-c3cccc(C)c3C)nc(N)n2)c1` [Example 363, N-[3-(3-{[2-Amino-6-(2,3-dimethylphenyl)pyrimidin-4-yl]amino}propoxy)phenyl]acetamide]: the IC50 was under 200 nM.

With `Cc1cccc(-c2cc(NCCCNC(=O)c3cccc(Br)c3)nc(N)n2)c1C` [Example 367, N-(3-{[2-Amino-6-(2,3-dimethylphenyl)pyrimidin-4-yl]amino}propyl)-3-bromobenzamide], the IC50 is under 200 nM.

For the molecule `Cc1cccc(-c2cc(NCCCNS(=O)(=O)c3cccc(C#N)c3)nc(N)n2)c1C` [Example 374, N-(3-{[2-Amino-6-(2,3-dimethylphenyl)pyrimidin-4-yl]amino}propyl)-3-cyanobenzene-1-sulfonamide], the IC50 is under 200 nM.

Consider `Cc1cccc(-c2cc(NCCCNS(=O)(=O)c3ccccc3)nc(N)n2)c1C` [Example 376, N-(3-{[2-Amino-6-(2,3-dimethylphenyl)pyrimidin-4-yl]amino}propyl)benzenesulfonamide], for which the IC50 was under 200 nM.

In turn, `C=CCNc1cc(-c2cccc(C)c2C)nc(N)n1` [Example 379, 6-(2,3-Dimethylphenyl)-4-N-(prop-2-en-1-yl)pyrimidine-2,4-diamine] registered an IC50 of under 200 nM.

Turning to `Cc1cccc(-c2cc(NCCCNS(=O)(=O)c3cccc(F)c3)nc(N)n2)c1C` [Example 381, N-(3-{[2-Amino-6-(2,3-dimethylphenyl)pyrimidin-4-yl]amino}propyl)-3-fluorobenzene-1-sulfonamide], the IC50 is under 200 nM.

Take `C#CCNc1cc(-c2cccc(C)c2C)nc(N)n1` [Example 386, 6-(2,3-Dimethylphenyl)-4-N-(prop-2-yn-1-yl)pyrimidine-2,4-diamine]: the IC50 was under 200 nM.
